According to the OPERA property sets (Mansouri et al. 2018):

details: not given

SMILES	melting point [°C]	log10 vapour pressure (mmHg)	boiling point [°C]	ready biodegradability	log10 biodegradation half-life (days)	log10 Henry constant (atm·m³/mol)	log10 Koa	log10 Koc (L/kg)
CC(C)(C)c1cc([N+](=O)[O-])c(O)c([N+](=O)[O-])c1	95	–	–	–	–	–	–	–
Clc1ccc2oc3c(Cl)c(Cl)c(Cl)c(Cl)c3c2c1	178	-8.44	–	–	–	–	–	–
CC(C)CCCBr	–	–	145	–	–	–	–	–
CC1(C)CCCCC1	-33.3	1.36	120	not readily biodegradable	–	–	–	–
Clc1cc(Cl)nc(Cl)n1	22.5	–	212	–	–	–	–	–
O=C(O)c1cc(O)c(O)c(O)c1	–	–	–	readily biodegradable	–	–	–	–
CC(=O)c1cc(C(C)C)ccc1C	–	–	250	–	–	–	–	–
CO[C@H]1C=C[C@H](OC)O1	–	–	161	–	–	–	–	–
CC(C)=CCl	–	–	68	–	–	–	–	–
CCCCCCOC(=O)c1ccccc1	–	–	272	–	–	–	–	–
CC1CCCC1C (centres undefined)	–	1.67	–	–	0.602	–	–	–
O=C(O)c1ccc(C(=O)O)cc1	–	-5.04	–	readily biodegradable	–	–	–	–
CCCCC(CC)COCCO (centres undefined)	–	–	229	–	–	–	–	–
O=C(O)CNCC(=O)O	248	–	–	–	–	–	–	–
CC1(C)CC(N)CC(C)(CN)C1 (centres undefined)	10	-1.82	247	not readily biodegradable	–	–	–	–
CCN(N)CC	–	–	99	–	–	–	–	–
CCn1cc(C(=O)O)c(=O)c2cnc(N3CCNCC3)nc21	254	–	–	–	–	–	–	–
Cc1ccc2c(C)ccc(C(C)C)c2c1	–	–	294	–	–	–	–	–
CCC(C)Nc1ccc(NC(C)CC)cc1 (centres undefined)	18	–	–	–	–	–	–	–
CC(C)CCCC(C)N (centres undefined)	–	–	155	–	–	–	–	–
Oc1ccc2c(c1)CCCC2	57	–	276	–	–	–	–	–
CCOC(=O)[C@H](O)[C@@H](O)C(=O)OCC	17	–	280	–	–	–	–	–
CC1(C)C(C(=O)OC(C#N)c2cccc(Oc3ccccc3)c2)C1(C)C (centres undefined)	47	-5.26	–	–	–	–	–	–

SMILES	melting point [°C]	log10 vapour pressure (mmHg)	boiling point [°C]	ready biodegradability	log10 biodegradation half-life (days)	log10 Henry constant (atm·m³/mol)	log10 Koa	log10 Koc (L/kg)
Sc1cccc(Cl)c1	–	–	206	–	–	–	–	–
C=CCOC(=O)OCC=C	–	-0.991	142	–	–	–	–	–
CCC(C)=O	-86.6	1.96	–	readily biodegradable	–	-4.24	2.71	–
CC1=C(/C=C/C(C)=C/C=C/C(C)=C/C=C/C=C(C)/C=C/C=C(C)/C=C/C2=C(C)C(=O)CCC2(C)C)C(C)(C)CCC1	179	–	–	–	–	–	–	–
O=[N+]([O-])c1ccc(F)c([N+](=O)[O-])c1	25.8	–	296	–	–	–	–	–
O=C1OC(=O)C2=C1CCCC2	74	–	–	–	–	–	–	–
CC(=O)OCCO	–	–	188	–	–	–	–	–
CCCCCCCCN	0	-0.0137	180	–	–	–	–	–
Cc1ccc(C)c(C(=O)O)c1	132	–	–	–	–	–	–	–
Fc1ccc(F)cc1	-13	1.81	89	–	–	–	–	–
Oc1c(Cl)cc(Cl)cc1Cl	–	–	–	readily biodegradable	–	–	–	3.03
O=C1CCC(=O)N1Br	174	–	–	–	–	–	–	–
CC#CC	-32.3	2.85	26.9	not readily biodegradable	–	–	–	–
NC(=O)N1CCCCC1	105	–	–	–	–	–	–	–
OC1CCOC1 (centres undefined)	–	–	181	–	–	–	–	–
CCCCCO[N+](=O)[O-]	–	0.705	157	–	–	-2.78	–	–
CN(C)C(CSC(N)=O)CSC(N)=O	–	–	–	not readily biodegradable	–	–	–	–
C#CC(O)(CC)CC	–	–	138	–	–	–	–	–
CCC(=O)C(C)CC (centres undefined)	–	–	134	–	–	–	–	–
CCCC(Cl)CCl (centres undefined)	–	–	148	–	–	–	–	–
CNC(=O)c1ccccc1	82	–	291	–	–	–	–	1.68
CCC1(CC)C(=O)NC(=S)NC1=O	180	–	–	–	–	–	–	–
CCCCCCCCCC(C)C=O (centres undefined)	–	–	171	–	–	–	–	–

SMILES	melting point [°C]	log10 vapour pressure (mmHg)	boiling point [°C]	ready biodegradability	log10 biodegradation half-life (days)	log10 Henry constant (atm·m³/mol)	log10 Koa	log10 Koc (L/kg)
CNc1ccc([N+](=O)[O-])cc1	152	–	–	–	–	–	–	–
CCCCOCc1ccco1	–	–	190	–	–	–	–	–
CC(C)=CCCC(C)CCO (racemic)	–	–	224	–	–	–	–	–
C=Cc1ccccn1	–	0.444	160	not readily biodegradable	–	–	–	–
CC1CCCCCCCCCCCCC(=O)C1 (centres undefined)	–	–	329	–	–	–	–	–
CC(C)NCC(O)c1ccc2ccccc2c1 (centres undefined)	108	–	–	–	–	–	–	–
CC(=O)C1CCOC1=O (centres undefined)	–	–	–	readily biodegradable	–	–	–	–
O=C1CSC(=O)N1	128	–	–	–	–	–	–	–
CC1=CC(=O)CCC1(C)C	–	–	217	–	–	–	–	–
COc1cc(Oc2ccc(Cl)cc2Cl)ccc1[N+](=O)[O-]	114	-4.85	–	–	–	–	–	–
Cc1c(Cl)ccc(Cl)c1Cl	–	–	–	–	–	-2.82	–	–
CC1(C)C(C=C(Cl)Cl)C1C(=O)OC(C#N)c1ccc(F)c(Oc2ccccc2)c1 (centres undefined)	60	-9.82	–	–	–	–	–	5
COc1cc(C=CC(=O)O)cc(OC)c1OC	127	–	–	–	–	–	–	–
COCC(=O)O	7.7	-0.839	204	–	–	–	–	–
OCCCCCCCCO	63	–	–	–	–	–	–	–
ClCC1C(CCl)C2(Cl)C(Cl)=C(Cl)C1(Cl)C2(Cl)Cl (centres undefined)	105	–	–	–	–	–	–	–
Clc1c(Cl)c(Cl)c2nccnc2c1Cl	190	–	–	–	–	–	–	–
Cc1cc(Cl)c(Cl)cc1Cl	82.4	–	231	–	–	-2.82	–	–
C[C@]12CCC(=O)C=C1CC[C@@H]1[C@@H]2CC[C@]2(C)C(=O)CC[C@@H]12	158	–	–	–	–	–	–	–
O=[N+]([O-])c1ccc(Br)c(Cl)c1	–	–	–	–	–	–	–	2.6
FC(F)C(F)F	-89	–	-19.9	–	–	–	–	–
CC[Si](Cl)(CC)CC	–	0.83	144	–	–	–	–	–
CCCCCCCC(=O)OCCCCCC	-30.6	–	277	–	–	–	–	–

SMILES	melting point [°C]	log10 vapour pressure (mmHg)	boiling point [°C]	ready biodegradability	log10 biodegradation half-life (days)	log10 Henry constant (atm·m³/mol)	log10 Koa	log10 Koc (L/kg)
CC#CC#CC	67.8	–	130	–	–	–	–	–
CCCCC(O)(CCCC)CCCC	20	–	–	–	–	–	–	–
Nc1nc(N)nc(N)n1	–	-9.44	–	not readily biodegradable	–	–	–	–
O=C(Cl)CCCC(=O)Cl	–	-0.932	217	–	–	–	–	–
ICI	6.1	0.0792	182	–	–	-3.49	–	–
O=C(O)COc1ccc(Cl)cc1CO	141	-6.18	–	–	–	–	–	–
O=CNC(N1CCN(C(NC=O)C(Cl)(Cl)Cl)CC1)C(Cl)(Cl)Cl (centres undefined)	–	-6.7	–	–	–	–	–	2.3
Cc1ccccc1C=O	–	–	200	–	–	–	–	–
COc1ccccc1C(=O)O	101	-4.8	–	readily biodegradable	–	–	–	–
COP(=O)(O)OC	–	–	174	–	–	–	–	–
O=C1OCCO1	39.5	-2.01	248	readily biodegradable	–	–	–	–
Nc1cc([N+](=O)[O-])ccc1Cl	121	–	–	–	–	–	–	–
Cc1ccccc1Oc1ccccc1	21.7	–	264	–	–	–	–	–
COc1cc(C(C)=O)ccc1O	115	–	297	–	–	–	–	–
NCCCNCCCN	-14	–	–	–	–	–	–	–
COC(=O)C1(S(=O)(=O)c2ccc(C)cc2)CC1	97.2	–	–	–	–	–	–	–
C(COCCOCC1CO1)OCCOCC1CO1 (centres undefined)	-13	–	–	–	–	–	–	–
CC(=O)[C@@]1(O)CC[C@H]2[C@@H]3CC[C@H]4C[C@@H](O)CC[C@]4(C)[C@H]3CC[C@@]21C	265	–	–	–	–	–	–	–
COc1ccc(CC#N)cc1	–	–	286	–	–	–	–	–
CC(C)COC(=O)c1ccc(N)cc1	64.5	–	–	–	–	–	–	–
O=c1oc2ccccc2cc1O	154	–	–	–	–	–	–	–
CC(C)(C)CC(C)(C)Nc1ncnc(N(CCCCCCNC2CC(C)(C)NC(C)(C)C2)C2CC(C)(C)NC(C)(C)C2)n1	138	–	–	–	–	–	–	–
CC(C)C[C@H](N)C(=O)O	293	–	–	–	–	–	–	–

SMILES	melting point [°C]	log10 vapour pressure (mmHg)	boiling point [°C]	ready biodegradability	log10 biodegradation half-life (days)	log10 Henry constant (atm·m³/mol)	log10 Koa	log10 Koc (L/kg)
C=C[Si](OCC)(OCC)OCC	–	0.358	–	–	–	–	–	–
C=C(C)C(OC(C)=O)OC(C)=O	–	–	191	–	–	–	–	–
Cc1ccc(C)c2ccccc12	7.6	-1.67	268	–	1.18	–	–	–
N#CC(c1ccccc1)c1ccccc1	74.3	–	–	not readily biodegradable	–	–	–	–
CCOC(=O)C(Br)C(C)Br (centres undefined)	58.5	–	–	–	–	–	–	–
CC(=O)Oc1cc(C(C)C)c(OCCN(C)C)cc1C	144	–	–	–	–	–	–	–
COC(=O)C1CC1	–	–	115	–	–	–	–	–
CC(=O)N1CCCC(C)C1 (centres undefined)	-13.6	–	239	–	–	–	–	–
ON=C(C(=NO)c1ccco1)c1ccco1	167	–	–	–	–	–	–	–
CCCCCCCCCCCCCCCCOCCCCCCCCCCCCCCCC	55	–	–	not readily biodegradable	–	–	–	–
OCC(F)F	-28.2	–	95.5	–	–	–	–	–
C1=COCCO1	–	–	94.1	–	–	–	–	–
CCOC(=O)c1cccc(Br)c1	–	–	261	–	–	–	–	–
CCCSc1ccccc1	-45	–	220	–	–	–	–	–
CCS(=O)(=O)c1nnc(N(C)C(=O)NC)s1	156	–	–	–	–	–	–	–
Clc1cccc(-c2c(Cl)cc(Cl)cc2Cl)c1	–	–	–	–	–	-3.68	–	–
CCCCCCCCCCCCCCCCCC(=O)OC(=O)CCCCCCCCCCCCCCCCC	72	–	–	–	–	–	–	–
CCCCCC[C@H](C)I	–	0.136	210	–	–	–	–	–
CCCNCCO	–	–	183	–	–	–	–	–
CCC=CC(C)C	–	1.88	–	–	–	–	–	–
O=[N+]([O-])c1ccccc1Nc1ccccc1	75	-5	–	–	–	–	–	–
C1COC1	-97	2.51	47.6	–	–	–	–	–
C=COC=C	-101	2.83	28.3	–	–	–	–	–

SMILES	melting point [°C]	log10 vapour pressure (mmHg)	boiling point [°C]	ready biodegradability	log10 biodegradation half-life (days)	log10 Henry constant (atm·m³/mol)	log10 Koa	log10 Koc (L/kg)
COc1ccc(F)cc1	-45	–	157	–	–	–	–	–
CC(NNC(=O)c1ccccc1)c1ccccc1 (centres undefined)	93.5	–	–	–	–	–	–	–
Nc1cnn(-c2ccccc2)c(=O)c1Br	224	–	–	–	–	–	–	–
C1=CCCCC=C1	-110	–	120	–	–	–	–	–
CCN(CC)C(=O)[C@@H]1C=C2c3cccc4[nH]cc(c34)C[C@H]2N(C)C1	82.5	–	–	–	–	–	–	–
O=C1c2ccccc2CCc2ccccc21	30	–	–	–	–	–	–	–
CC(/C=C/C=C(\C)C(=O)O)=C\C=C\C=C(C)\C=C\C=C(/C)C(=O)O	286	–	–	–	–	–	–	–
C=CCCC	-165	2.8	29.9	–	–	–	1.93	–
NC(=O)c1ccncc1	156	–	–	–	–	–	–	–
Oc1ccc(S)cc1	29.5	–	–	–	–	–	–	–
Oc1ccc(Nc2ccc3ccccc3c2)cc1	140	–	–	–	–	–	–	–
Cc1cccc(O)c1[N+](=O)[O-]	37	-1.43	–	–	–	-5.51	–	–
C=C(C)C(=O)OCC(C)O (centres undefined)	–	–	–	readily biodegradable	–	–	–	–
O=S(=O)(Sc1ccccc1)c1ccc(Cl)cc1	-86.8	–	–	–	–	–	–	–
CC1(O)CCCCCC1	–	–	184	–	–	–	–	–
O=C(O)COc1c(F)c(F)c(F)c(F)c1F	109	–	–	–	–	–	–	–
O=c1cc[nH]c2ccccc12	201	–	–	–	–	–	–	–
CC(C)N(N=O)C(C)C	48	–	194	–	–	–	–	–

same assay, conditions: fish

SMILES	log10 BCF	log10 biotransformation half-life (days)
Oc1c(Cl)cc(Cl)cc1Cl	1.94	-0.57
COc1cc(Oc2ccc(Cl)cc2Cl)ccc1[N+](=O)[O-]	3.59	–
Cc1cc(Cl)c(Cl)cc1Cl	3.87	2.01
Nc1nc(N)nc(N)n1	0.58	–
